What is called IC50 is the concentration that gives 50% inhibition. Lower therefore signals inhibition by little substance.

The record followed here is PMC9578143, “Small-Molecule Ebselen Binds to YTHDF Proteins Interfering with the Recognition of N^6-Methyladenosine-Modified RNAs” (ACS Pharmacology & Translational Science, 2022).

In assay [1] the target is T1, recombinant YTH domain of the YTHDF1 protein (Homo sapiens, UniProt Q9BYJ9).
T1 construct: The human YTHDF1 YTH domain (amino acids 365–554, PDB: 4RCJ); host or cells: E. coli BL21(DE3)
T1 sequence (Q9BYJ9 365-554): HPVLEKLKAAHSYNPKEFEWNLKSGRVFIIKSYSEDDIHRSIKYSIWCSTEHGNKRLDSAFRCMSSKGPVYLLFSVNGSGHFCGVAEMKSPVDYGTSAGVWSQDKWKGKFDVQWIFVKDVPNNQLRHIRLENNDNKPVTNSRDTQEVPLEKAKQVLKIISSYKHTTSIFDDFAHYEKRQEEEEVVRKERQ
The experiment in a line: ESI-MS of the protein after incubation with the compound. The format is binding.

For assay [2], the target named is T2, YTH domain of YTHDF1 / biotinylated RNA probe 5′-Bi-CCGAm6ACUGUC-3′ (Homo sapiens, UniProt Q9BYJ9).
T2 construct: The human YTHDF1 YTH domain (amino acids 365–554, PDB: 4RCJ); host or cells: E. coli BL21(DE3)
T2 sequence (Q9BYJ9 365-554): T1 sequence (Q9BYJ9 365-554)
Kind of assay: AlphaScreen competitive assay, saturation binding. To be noted: 50 nM RNA, 50 nM protein, compound 0–100 μM. As to the method:
The Amplified Luminescent Proximity Homogeneous Assay (ALPHA Assay) was performed in white 384-well Optiplates (PerkinElmer) in a final volume of 20 μL, and it was first optimized by titrating both the protein and the biotinylated RNA probe (5′-Bi-CCGAm6ACUGUC-3′, Dharmacon) to find the appropriate right protein/RNA ratio before the saturation of the detection signal. […] Anti-His acceptor beads (PerkinElmer) (20 μg/mL final concentration) and streptavidin donor beads (20 μg/mL final concentration) were added and the reaction was incubated in the dark at room temperature for 1 h to reach equilibrium. Light signals were detected with an Enspire Multimode Plate reader (PerkinElmer). […] The IC50 of ebselen was determined from the nonlinear regression fits of the data.
Background: In Alpha technology, singlet oxygen from a donor bead excites a nearby acceptor bead.

A further assay concerns the target T3, YTHDF1 in HEK293T cells (Homo sapiens, UniProt Q9BYJ9).
T3 construct: endogenous in cells; host or cells: HEK293T
T3 sequence (Q9BYJ9 1-559): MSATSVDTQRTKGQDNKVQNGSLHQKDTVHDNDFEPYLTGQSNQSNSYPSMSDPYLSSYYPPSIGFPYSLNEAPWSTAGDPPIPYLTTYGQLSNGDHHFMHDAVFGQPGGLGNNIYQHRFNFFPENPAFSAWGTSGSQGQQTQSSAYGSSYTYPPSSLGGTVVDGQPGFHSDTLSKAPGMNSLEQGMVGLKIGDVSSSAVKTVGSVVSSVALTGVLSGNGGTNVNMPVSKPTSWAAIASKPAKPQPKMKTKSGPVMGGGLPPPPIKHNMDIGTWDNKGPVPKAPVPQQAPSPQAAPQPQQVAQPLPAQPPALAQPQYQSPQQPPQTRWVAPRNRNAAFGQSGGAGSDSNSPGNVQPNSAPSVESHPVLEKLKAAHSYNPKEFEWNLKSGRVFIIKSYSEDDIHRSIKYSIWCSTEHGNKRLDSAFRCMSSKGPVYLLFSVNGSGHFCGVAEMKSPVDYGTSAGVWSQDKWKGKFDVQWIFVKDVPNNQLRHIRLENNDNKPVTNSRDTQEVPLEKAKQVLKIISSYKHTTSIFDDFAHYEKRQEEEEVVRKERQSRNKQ
The experiment in a line: Cellular thermal shift assay (CETSA). The format is cell-based. To be noted: 50 μM, 3 h, versus DMSO, listed as Ebselen. The protocol:
HEK293T cells were seeded on 100 mm cell culture plate/s and allowed to adhere overnight. At 80% of confluency, cells were treated with 50 μM ebselen or DMSO as a control and incubated for 3 h at 37 °C in the CO2 incubator. Cells were centrifuged and resuspended in PBS and the protease inhibitor, at a concentration of (0.5–1) × 10^6 cells /100 μL of suspension. Lysates were divided into 9–10 aliquots of 100 μL into 0.2 mL microcentrifuge tubes and incubated at a temperature gradient on a PCR machine for 3 min. After incubation, lysates were frozen and thawed five times in dry ice and at 27 °C for 3 min each. All tubes were then centrifuged at 4 °C for 20 min at 12,000 rpm. Supernatants were then collected and transferred to clean tubes with a loading buffer 5×, heated for 10 min at 95 °C, and detected with Western Blot. The blot was then plotted with a YTHDF1 (Proteintech, 17479-1-AP) and actin (Cell Signaling, 12620S) primary antibody and subsequently with anti-Rabbit HRP (Santa Cruz, sc-2357) and anti-mouse HRP (Thermo Fisher, 61-6520). Chemiluminescent detection was performed using Amersham ECL Prime (GE Healthcare).

For assay [3], the system named is YTHDF1-3, ALKBH5 and METTL3 in PC-3 cells. Kind of assay: Western blot of the epitranscriptome apparatus. Format: cell-based, human. To be noted: PC-3 cells, 24, 48 and 72 h, 10, 25, 50 μM; listed as ebselen. The protocol:
Supplementary Figure 4. Protein level of the epitranscriptome apparatus and m6A level in PC-3 cells. (A) Representative western blot of YTHDF1-3, ALKBH5 and METTL3 in PC-3 cells after 24, 48 and 72 hours of ebselen treatment at three doses, 10, 25, 50 µM. (B) Quantification of the relative changes of YTHDF1-3, ALKBH5 and METTL3 in PC-3 cells after 24, 48 and 72 hours of ebselen treatment at three doses, 10, 25, 50 µM. […] Three biological replicates were performed. (C) Quantitative real-time PCR of YTHDF1-3, ALKBH5 and METTL3 in PC-3 cells after 24 hours of ebselen treatment at 10 µM.
Supplementary Figure 5. Caption: 2F o-Fc map (blue) is contoured at 1s for Ebselen and Cys412 side chain. The selenium anomalous map is contoured at 3.5σ and shown in orange.
(1 picture or pasted object on this page, not shown here)
For orientation: Immunoblotting shows a protein as a band on a membrane.

The next assay relates to PC-3 cells. Kind of assay: Cell viability assay (OZBlue). Format: cell-based. Particulars: Homo sapiens. The protocol: PC-3 cells were seeded and treated in 96 plates for 24, 48, and 72 h. Cell viability was assessed by adding to the cells 10% of the culture medium volume of the OZBlue reagent (OZ Biosciences). Cells were incubated at 37 °C for 1 h. Fluorescence was then determined (excitation 560 nm and emission 590 nm) by a Tecan microplate reader. Cell survival was calculated with respect to control (DMSO), and IC50 values were determined by fitting with GraphPad Prism software.

With `O=c1c2ccccc2[se]n1-c1ccccc1` [Compound 1, 2-phenyl-1,2-benzisoselenazol-3(2H)-one], the “Mass shift of the YTH domain (ESI-MS)” value in assay [1] (5 μM protein, 50 μM compound, 60 min, no DTT) is given as 274.96 Da. For the same compound, the “Mass of the YTH domain after incubation (ESI-MS, in words)” value in assay [1] (in the presence of 1 mM DTT) is reported as “matched that of the unmodified YTH domain”. The IC50 was determined as 3.565 ± 0.009 µM in assay [2], 58.8 µM in the assay with PC-3 cells (24 h), 49.6 µM in the assay on PC-3 cells (48 h) and 26.8 µM in the assay with PC-3 cells (72 h). Further, the “ΔTagg of YTHDF1 (CETSA)” value at YTHDF1 in HEK293T cells is 3.48 °C. In addition, the “Expression level of the proteins of the epitranscriptome apparatus (in words)” value in assay [3] is recorded as “No changes were observed”.
